Earlier results on one compound are cited in patent publication US11566140B2, “Exterior coating composition” (Troy Corporation, priority 2019, dated 2023).

The conditions of the data set: 5 grams of pure BIT completely soluble in 100 ml of methanol.

In the case of `O=c1[nH]sc2ccccc12` [BIT, 1,2-benzisothiazolin-3-one], the solubility in methanol entry was “greater than 5%”.
